The values below come from patent US9914730B2, “Azaquinazoline inhibitors of Atypical protein Kinase C” (Ignyta, Inc., priority 2012, dated 2018).

This assay deals with T1, full-length human PKCι (Homo sapiens, UniProt P41743).
T1 construct: Recombinant, full-length human PKCι expressed in Sf21 insect cells is also commercially available; purchased; host or cells: Sf21 insect cells
T1 sequence (P41743 1-596): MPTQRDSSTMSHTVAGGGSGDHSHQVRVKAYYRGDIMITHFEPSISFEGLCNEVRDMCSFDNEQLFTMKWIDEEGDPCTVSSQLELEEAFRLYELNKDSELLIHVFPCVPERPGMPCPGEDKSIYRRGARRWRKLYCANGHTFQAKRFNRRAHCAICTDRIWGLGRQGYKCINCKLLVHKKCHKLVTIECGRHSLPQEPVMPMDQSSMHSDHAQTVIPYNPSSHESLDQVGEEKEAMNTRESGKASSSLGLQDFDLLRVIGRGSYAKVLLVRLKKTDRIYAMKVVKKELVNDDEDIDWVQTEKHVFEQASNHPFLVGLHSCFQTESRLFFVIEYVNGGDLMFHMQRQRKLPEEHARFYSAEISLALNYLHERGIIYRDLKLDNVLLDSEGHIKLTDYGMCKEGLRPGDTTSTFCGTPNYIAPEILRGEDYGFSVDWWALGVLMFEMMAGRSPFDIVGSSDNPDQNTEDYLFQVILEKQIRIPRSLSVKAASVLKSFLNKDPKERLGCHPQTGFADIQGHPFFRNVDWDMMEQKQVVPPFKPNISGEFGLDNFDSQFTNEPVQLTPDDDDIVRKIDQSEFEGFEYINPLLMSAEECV
The assay is described as follows: PKCι IC50 IMAP assay, full-length PKCι at 150 μM ATP. The class given is biochemical. The note with it: read-out: IC50 in IMAP assay against full length PKCi at 150 μM ATP. An outline of the steps:
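Compounds in 4% final DMSO are mixed with Sf21-derived full-length human PKCι (typically 15 pM) and 100 nM FAM-labelled pseudosubstrate peptide, then started with 150 μM ATP. Reaction runs 60 min at room temperature, is quenched with IMAP development reagent for 2 h, and fluorescence polarisation is measured to derive IC50.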
The IC50 is the midpoint of a concentration-inhibition curve. On to `N[C@H](CNc1nc(N2CCOCC2)nc2cnccc12)Cc1ccccc1` [Example 1014, (S)—N^1-(2-Morpholin-4-yl-pyrido[3,4-d]pyrimidin-4-yl)-3-phenyl-propane-1,2-diamine], for which the IC50 lay in the range of 100 to 1000 nM. In the case of `Brc1cncc2nc(N3CCOCC3)nc(N3CCNCC3)c12` [Example 1015, 5-Bromo-2-morpholin-4-yl-4-piperazin-1-yl-pyrido[3,4-d]pyrimidine], the IC50 is 100 to 1000 nM.

Regarding `c1ncc2nc(N3CCOCC3)nc(N3CCNCC3)c2c1C1CC1` [Example 1016, 5-Cyclopropyl-2-morpholin-4-yl-4-piperazin-1-yl-pyrido[3,4-d]pyrimidine], the IC50 is < 100 nM. On to `c1ccc(C[C@H]2CN(c3nc(N4CCOCC4)nc4cncc(C5CC5)c34)CCN2)cc1` [Example 1017, 4-((S)-3-Benzyl-piperazin-1-yl)-5-cyclopropyl-2-morpholin-4-yl-pyrido[3,4-d]pyrimidine], for which the IC50 is < 100 nM. Regarding `N#CC[C@H]1CN(c2nc(N3CCOCC3)nc3cncc(C4CC4)c23)CCN1` [Example 1018, [(S)-4-(5-Cyclopropyl-2-morpholin-4-yl-pyrido[3,4-d]pyrimidin-4-yl)-piperazin-2-yl]-acetonitrile], the IC50 is < 100 nM.

Take `COc1cncc2nc(-c3ccnc4[nH]ccc34)nc(N3CCNCC3)c12` [Example 1200, 5-Methoxy-4-piperazin-1-yl-2-(1H-pyrrolo[2,3-b]pyridin-4-yl)-pyrido[3,4-d]pyrimidine]: the concentration for half-maximal inhibition (IC50) was < 100 nM. Regarding `COc1cncc2nc(-c3ccnc4[nH]c(C)cc34)nc(N3CCNCC3)c12` [Example 1201, 5-Methoxy-2-(2-methyl-1H-pyrrolo[2,3-b]pyridin-4-yl)-4-piperazin-1-yl-pyrido[3,4-d]pyrimidine], the IC50 is < 100 nM.

Take `COc1cncc2nc(-c3ccnc4[nH]c(Cc5ccccc5)cc34)nc(N3CCNCC3)c12` [Example 1202, 2-(2-Benzyl-1H-pyrrolo[2,3-b]pyridin-4-yl)-5-methoxy-4-piperazin-1-yl-pyrido[3,4-d]pyrimidine]: the IC50 is < 100 nM. With `COc1cncc2nc(-c3ccnc4[nH]c(Cc5ccccc5F)cc34)nc(N3CCNCC3)c12` [Example 1203, 2-[2-(2-Fluoro-benzyl)-1H-pyrrolo[2,3-b]pyridin-4-yl]-5-methoxy-4-piperazin-1-yl-pyrido[3,4-d]pyrimidine] the figure was < 100 nM.

`CCc1cc2c(-c3nc(N4CCNCC4)c4c(OC)cncc4n3)ccnc2[nH]1` [Example 1204, 2-(2-Ethyl-1H-pyrrolo[2,3-b]pyridin-4-yl)-5methoxy-4-piperazin-1-yl-pyrido[3,4-d]pyrimidine]: the IC50 lay within 100 to 1000 nM. In the case of `COC[C@H]1CN(c2nc(-c3ccnc4[nH]ccc34)nc3cncc(OC)c23)CCN1` [Example 1205, 5-Methoxy-4-((R)-3-methoxymethyl-piperazin-1-yl)-2-(1H-pyrrolo[2,3-b]pyridin-4-yl)-pyrido[3,4-d]pyrimidine], the IC50 was 100 to 1000 nM.

As to `COc1cncc2nc(-c3ccnc4[nH]ccc34)nc(N3CCN[C@@H](CO)C3)c12` [Example 1206, {(R)-4-[5-Methoxy-2-(1H-pyrrolo[2,3-b]pyridin-4-yl)-pyrido[3,4-d]pyrimidin-4-yl]-piperazin-2-yl}-methanol], the IC50 is < 100 nM. Take `c1cc2c(N3CCNCC3)nc(-c3ccnc4[nH]ccc34)nc2cn1` [Example 1207, 4-Piperazin-1-yl-2-(1H-pyrrolo[2,3-b]pyridin-4-yl)-pyrido[3,4-d]pyrimidine]: the concentration for half-maximal inhibition (IC50) was 100 to 1000 nM.

For the compound `c1cc2c(N[C@@H]3CCNC3)nc(-c3ccnc4[nH]ccc34)nc2cn1` [Example 1208, (R)-Pyrrolidin-3-yl-[2-(1H-pyrrolo[2,3-b]pyridin-4-yl)-pyrido[3,4-d]pyrimidin-4-yl]-amine], the IC50 lay within 100 to 1000 nM. With `c1cc(-c2nc(N3CCNCC3)c3c(C4CC4)cncc3n2)c2cc[nH]c2n1` [Example 1209, 5-Cyclopropyl-4-piperazin-1-yl-2-(1H-pyrrolo[2,3-b]pyridin-4-yl)-pyrido[3,4-d]pyrimidine] the figure was < 100 nM.
